Data from PubChem BioAssay AID248 (DTP/NCI, 2004).
Toxic doses and inconclusive results are not listed. Cut-off read from the data, not from the text of the source: active = T/C of 150% or more; inactive = T/C below 125%.

Tested on: L1210 leukemia ip in BDF1 mice, survival T/C
Assay: NCI In Vivo Anticancer Drug Screen. Data for tumor model L1210 Leukemia (intraperitoneal) in B6D2F1 (BDF1) mice
Details: endpoint: mean survival time, higher = longer survival
Method in brief: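 Antitumor effect is assessed in tumor-bearing animals. Survival in the compound arm is compared with a vehicle-dosed control arm and expressed as their quotient.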

[1] = dose: 100.0 mg/kg/injection, schedule: Q01DX001 (ip), vehicle: saline
[2] = dose: 100.0 mg/kg/injection, schedule: Q01DX009 (ip), vehicle: saline
[3] = dose: 200.0 mg/kg/injection, schedule: Q01DX001 (ip), vehicle: saline
[4] = dose: 200.0 mg/kg/injection, schedule: Q01DX009 (ip), vehicle: saline
[5] = dose: 400.0 mg/kg/injection, schedule: Q01DX001 (ip), vehicle: saline
[6] = dose: 100.0 mg/kg/injection, schedule: Q01DX009 (ip), vehicle: Klucel (hydroxypropylcellulose) (HPC)
[7] = dose: 100.0 mg/kg/injection, schedule: Q04DX003 (ip), vehicle: Klucel (hydroxypropylcellulose) (HPC)
[8] = dose: 200.0 mg/kg/injection, schedule: Q01DX009 (ip), vehicle: Klucel (hydroxypropylcellulose) (HPC)
[9] = dose: 200.0 mg/kg/injection, schedule: Q04DX003 (ip), vehicle: Klucel (hydroxypropylcellulose) (HPC)
[10] = dose: 400.0 mg/kg/injection, schedule: Q01DX009 (ip), vehicle: Klucel (hydroxypropylcellulose) (HPC)
[11] = dose: 400.0 mg/kg/injection, schedule: Q04DX003 (ip), vehicle: Klucel (hydroxypropylcellulose) (HPC)

Measured: T/C

Cc1ccc(S(=O)(=O)C2=C(c3ccccc3)c3ccccc3CC2)cc1
inactive: [1] 101 % of control | [2] 93 % of control | dose: 100.0 mg/kg/injection, schedule: Q04DX003 (ip), vehicle: acetone 100 % of control | [3] 93 % of control | [4] 91 % of control | dose: 200.0 mg/kg/injection, schedule: Q04DX003 (ip), vehicle: acetone 102 % of control | [5] 95 % of control | dose: 400.0 mg/kg/injection, schedule: Q01DX009 (ip), vehicle: saline 93 % of control | dose: 400.0 mg/kg/injection, schedule: Q04DX003 (ip), vehicle: acetone 105 % of control

O=C1c2ccccc2C(=O)N1c1ccc(Br)cc1
inactive: dose: 100.0 mg/kg/injection, schedule: Q01DX001 (ip), vehicle: Klucel (hydroxypropylcellulose) (HPC) 101 % of control | dose: 200.0 mg/kg/injection, schedule: Q01DX001 (ip), vehicle: Klucel (hydroxypropylcellulose) (HPC) 104 % of control | dose: 400.0 mg/kg/injection, schedule: Q01DX001 (ip), vehicle: Klucel (hydroxypropylcellulose) (HPC) 104 % of control

S=c1nc[nH]c2n[nH]nc12
inactive: dose: 12.5 mg/kg/injection, schedule: Q01DX001 (ip), vehicle: saline with Tween-80 104 % of control | dose: 25.0 mg/kg/injection, schedule: Q01DX001 (ip), vehicle: saline with Tween-80 103 % of control | dose: 50.0 mg/kg/injection, schedule: Q01DX001 (ip), vehicle: saline with Tween-80 98 % of control | dose: 100.0 mg/kg/injection, schedule: Q01DX001 (ip), vehicle: saline with Tween-80 98 % of control | dose: 200.0 mg/kg/injection, schedule: Q01DX001 (ip), vehicle: saline with Tween-80 101 % of control | dose: 400.0 mg/kg/injection, schedule: Q01DX001 (ip), vehicle: saline with Tween-80 103 % of control

CC(C)CC1NC(C)(C)CO1 (centres undefined)
inactive: dose: 75.0 mg/kg/injection, schedule: Q01DX001 (ip), vehicle: carboxymethylcellulose (CMC) 102 % of control | dose: 150.0 mg/kg/injection, schedule: Q01DX001 (ip), vehicle: carboxymethylcellulose (CMC) 95 % of control | dose: 300.0 mg/kg/injection, schedule: Q01DX001 (ip), vehicle: carboxymethylcellulose (CMC) 100 % of control

COc1ccc2nc3cc(Cl)ccc3c(NCCCNCCCl)c2c1
inactive: dose: 10.0 mg/kg/injection, schedule: Q04DX003 (ip), vehicle: Klucel (hydroxypropylcellulose) (HPC) 115 % of control | dose: 20.0 mg/kg/injection, schedule: Q04DX003 (ip), vehicle: Klucel (hydroxypropylcellulose) (HPC) 103 % of control | dose: 40.0 mg/kg/injection, schedule: Q04DX003 (ip), vehicle: Klucel (hydroxypropylcellulose) (HPC) 105 % of control

COc1ncnc2c1ncn2-c1cccc(C)c1
inactive: dose: 50.0 mg/kg/injection, schedule: Q01DX001 (ip), vehicle: carboxymethylcellulose (CMC) 104 % of control | dose: 100.0 mg/kg/injection, schedule: Q01DX001 (ip), vehicle: carboxymethylcellulose (CMC) 98 % of control | dose: 200.0 mg/kg/injection, schedule: Q01DX001 (ip), vehicle: carboxymethylcellulose (CMC) 104 % of control | dose: 400.0 mg/kg/injection, schedule: Q01DX001 (ip), vehicle: carboxymethylcellulose (CMC) 104 % of control

Nc1nccc2c1ncn2C1OC(CO)C(O)C1O (centres undefined)
inactive: dose: 100.0 mg/kg/injection, schedule: Q01DX005 (ip), vehicle: saline 108 % of control | dose: 200.0 mg/kg/injection, schedule: Q01DX005 (ip), vehicle: saline 109 % of control

Nc1ccccc1-c1ccccc1
inactive: dose: 75.0 mg/kg/injection, schedule: Q01DX001 (ip), vehicle: saline 112 % of control

O=C1c2ccccc2C(=O)N1CNc1ccccc1
inactive: [6] 103 % of control | [7] 104 % of control | [8] 98 % of control | [9] 102 % of control | [10] 93 % of control | [11] 94 % of control

Cl[C](Cl)(Cl)[Hg][c]1ccccc1
inactive: dose: 3.0 mg/kg/injection, schedule: Q01DX009 (ip), vehicle: Klucel (hydroxypropylcellulose) (HPC) 88 % of control | dose: 6.0 mg/kg/injection, schedule: Q01DX009 (ip), vehicle: Klucel (hydroxypropylcellulose) (HPC) 92 % of control | dose: 12.0 mg/kg/injection, schedule: Q01DX009 (ip), vehicle: Klucel (hydroxypropylcellulose) (HPC) 90 % of control | dose: 12.5 mg/kg/injection, schedule: Q01DX009 (ip), vehicle: Klucel (hydroxypropylcellulose) (HPC) 110 % of control

CCCCCCCCC(=O)CCC
inactive: [6] 98 % of control | [7] 98 % of control | [8] 98 % of control | [9] 106 % of control | [10] 98 % of control | [11] 91 % of control

CC1=C(/C=C/C(C)=N/NC(N)=O)C(C)(C)CCC1
inactive: [2] 100 % of control | dose: 100.0 mg/kg/injection, schedule: Q04DX003 (ip), vehicle: saline 94 % of control | [4] 100 % of control | dose: 200.0 mg/kg/injection, schedule: Q04DX003 (ip), vehicle: saline 102 % of control | dose: 400.0 mg/kg/injection, schedule: Q04DX003 (ip), vehicle: saline 96 % of control

C/C(=C\c1ccccc1)C(=O)C1C(c2ccccc2)CC(=O)C(C)C1c1ccccc1 (centres undefined)
inactive: dose: 50.0 mg/kg/injection, schedule: Q04DX002 (ip), vehicle: saline + alcohol 98 % of control | dose: 100.0 mg/kg/injection, schedule: Q04DX002 (ip), vehicle: saline + alcohol 91 % of control | dose: 200.0 mg/kg/injection, schedule: Q04DX002 (ip), vehicle: saline + alcohol 91 % of control

COc1cc(NCCCNc2c3ccc(Cl)cc3nc3ccc(OC)cc23)c2ncccc2c1
inactive: [6] 100 % of control

CC(=O)C(C)C(O)c1ccc([N+](=O)[O-])cc1 (centres undefined)
inactive: [6] 91 % of control | [7] 100 % of control | [8] 91 % of control | [9] 98 % of control | [10] 92 % of control | [11] 98 % of control

Cc1ccc(C#N)cc1
inactive: dose: 100.0 mg/kg/injection, schedule: Q01DX009 (ip), vehicle: saline with Tween-80 98 % of control | dose: 100.0 mg/kg/injection, schedule: Q04DX003 (ip), vehicle: saline with Tween-80 94 % of control | dose: 200.0 mg/kg/injection, schedule: Q01DX009 (ip), vehicle: saline with Tween-80 93 % of control | dose: 200.0 mg/kg/injection, schedule: Q04DX003 (ip), vehicle: saline with Tween-80 92 % of control | dose: 400.0 mg/kg/injection, schedule: Q01DX009 (ip), vehicle: saline with Tween-80 98 % of control | dose: 400.0 mg/kg/injection, schedule: Q04DX003 (ip), vehicle: saline with Tween-80 96 % of control

COCC(O)C(OC)C(OC)C(N)C=O (centres undefined)
inactive: [1] 101 % of control | [3] 101 % of control | [5] 107 % of control

CC(Cc1ccc2c(c1)OCO2)C(C)Cc1ccc2c(c1)OCO2 (centres undefined)
inactive: dose: 100.0 mg/kg/injection, schedule: Q01DX009 (ip), vehicle: other 102 % of control | dose: 100.0 mg/kg/injection, schedule: Q04DX003 (ip), vehicle: other 90 % of control | dose: 200.0 mg/kg/injection, schedule: Q01DX009 (ip), vehicle: other 109 % of control | dose: 200.0 mg/kg/injection, schedule: Q04DX003 (ip), vehicle: other 102 % of control | dose: 400.0 mg/kg/injection, schedule: Q01DX009 (ip), vehicle: other 91 % of control | dose: 400.0 mg/kg/injection, schedule: Q04DX003 (ip), vehicle: other 90 % of control

O=C(O)/C=C/c1ccc([N+](=O)[O-])s1
inactive: dose: 100.0 mg/kg/injection, schedule: Q04DX002 (ip), vehicle: Klucel (hydroxypropylcellulose) (HPC) 90 % of control | dose: 200.0 mg/kg/injection, schedule: Q04DX002 (ip), vehicle: Klucel (hydroxypropylcellulose) (HPC) 90 % of control

O=C1O[B-](c2ccccc2)(c2ccccc2)[NH2+]C1Cc1ccc(O)cc1 (centres undefined)
inactive: dose: 75.0 mg/kg/injection, schedule: Q01DX001 (ip), vehicle: acetone 91 % of control | dose: 150.0 mg/kg/injection, schedule: Q01DX001 (ip), vehicle: acetone 96 % of control | dose: 300.0 mg/kg/injection, schedule: Q01DX001 (ip), vehicle: acetone 95 % of control

Oc1c(Br)cc(Br)cc1/C=N/c1nc(-c2ccccc2)cs1.Oc1c(Br)cc(Br)cc1/C=N/c1nc(-c2ccccc2)cs1.[Co]
inactive: [1] 93 % of control | [5] 86 % of control
